Where two headings read alike, the source gives them in different places. Some results are limits rather than exact numbers.

Data set [1] concerns PANK2−/− IMR32 cells. The data set is described as follows: Coenzyme A assay in PANK2 silenced cells (LC-MS quantification of free CoA). To be noted: Homo sapiens, IMR-32; compound concentration 50 uM; fold increase in CoA levels relative to controls; treated twice, 24 h + 24 h. It counts as cell-based, human.
Data set [2] in a line: Stability of compounds in mouse hepatocytes. To be noted: cryopreserved mouse hepatocytes in suspension, 37° C., 0-240 min. Format: in vitro ADME. How it is done: Stability in hepatocytes for select compounds disclosed in the application was evaluated in two species (mouse and human) according to the following procedure. Compounds and positive control samples were dissolved in 100% DMSO at 5 mM. Cryopreserved hepatocytes were thawed and resuspended in Hepatocyte Basal Medium (HBM-Lonza CC-3199) supplemented with CC-4182 (complete hepatocyte culture medium). Test compounds were diluted into cell suspension (1 million cells/ml) from the stock solutions to have a test compound concentration of 5 μM (0.1% DMSO). Incubation was performed in 24-well plates, at 37° C. in a DUBNOFF water bath, under low shaking. Each compound was tested at 6 time points, in duplicates (0, 15, 30, 60, 120, and 240 min). At each time point, an aliquot of 120 μl was taken and transferred to a 96-well deep plate. The reaction was stopped with the addition of one volume of 100% acetonitrile plus 0.1% formic acid and the appropriate internal standard. Samples then were centrifuged at 1100×g for 30 min at +4° C. and supernatants were transferred to a new 96-deepwell plate. Samples were evaporated under N2 and reconstituted in H2O/ACN 0.1% formic Acid (98:2). Analysis was performed without a calibration curve (Acquity UPLC-Waters; Sciex API4000). Time 0 was obtained adding acetonitrile before addition of the test compound. Stability was determined based on analysis of disappearance of the compounds as a function of incubation time. Quantification of test compounds was measured as a peak area relative to an internal standard. The elimination constant, k, is calculated by plotting mean disappearance values on a semi-logarithmic scale and fitting with a best fit linear regression. The half-life (t1/2) expressed in hours was derived using Equation 1:
t1/2=ln 2/(−k). Equation 1: […]

Data set [3] in a line: Stability in human whole blood. Format: in vitro ADME. To be noted: 37° C., up to 60 min. The procedure:
The stability of selected compounds in human whole blood was evaluated according to the following protocol. Compounds and positive control samples were dissolved in 100% DMSO at 3 mM (stock solution). To investigate the stability of the test compounds in whole blood, a 200 μM working solution (WS) in water has been prepared by adding 66.66 μl of each 3 mM stock solution to 933.34 μl of water (6.66% DMSO content). After pre-incubation of the whole blood at 37° C. for 5 min in an eppendorf, 10.5 μl of each working solution were spiked into 689.5 μl of heated blood. The obtained 3 μM solution in blood (0.1% DMSO content) was quickly stirred and 100 μl for each time point were transferred to an eppendorf. Each compound was tested in duplicate at five time points (10, 20, 30, 40 and 60 min). At each time point, the reaction was stopped by quenching the spiked blood (100 μl) with 400 μl of 100% acetonitrile containing 0.1% formic acid. Then samples were centrifuged at 15600 rpm for 15 min at +4° C. and 200 μl of supernatant were transferred to a 96-deepwell plate. Samples were evaporated under N2 and reconstituted in H2O/ACN 0.1% formic Acid (98/2 v/v) containing the appropriate internal standard. Analysis was performed without a calibration curve by using an Acquity-UPLC (Waters) coupled to a triple quadrupole mass spectrometer (SciexAPI4000). Time point 0 was obtained by adding 3 μL of each 200 μM working solution to 997 μL of the supernatant obtaining after centrifugation (15600 rpm for 15 min at +4° C.) of the blank matrix quenched with acetonitrile containing 0.1% formic acid.
Stability was determined based on analysis of disappearance of the compounds as a function of incubation time. Quantification of test compounds was measured as a peak area relative to an internal standard. The elimination constant k and half-life (t1/2) were determined as described above in Example 7.

Where [4] appears, read: Diastereoisomer A (upfield shift in 31P NMR), read-out: t1/2 (h) Mouse Hepatocytes Diastereoisomer A (converted).
Where [5] appears, read: Diastereoisomer B, read-out: t1/2 (h) Mouse Hepatocytes Diastereoisomer B.
The mark [6] stands for this setting: Diastereoisomer A (upfield shift in 31P NMR), read-out: t1/2 (h) Human Whole Blood Diastereoisomer A (converted).
Setting [7] is: Diastereoisomer B, read-out: t1/2 (h) Human Whole Blood Diastereoisomer B (converted).

What is called fold induction is the signal under treatment as a multiple of the control signal. Take `CC(=O)SCCNC(=O)CCNC(=O)[C@@H]1OP(=O)(OCOC(=O)c2scnc2C)OCC1(C)C` (stereo partly drawn) [R1006, (((4R)-4-((3-((2-(acetylthio)ethyl)amino)-3-oxopropyl)carbamoyl)-5,5-dimethyl-2-oxido-1,3,2-dioxaphosphinan-2-yl)oxy)methyl 4-methylthiazole-5-carboxylate]: the fold induction at 50 µM in data set [1] came to 117. Besides, the half-life at 5 μM in data set [2] (setting [4]) was 0.31 h; in data set [2] (setting [5]), less than 0.25 h. Besides, the half-life at 3 μM in data set [3] (setting [6]) is 0.37 h; in data set [3] (setting [7]), less than 0.16 h.

As for `CC(=O)SCCNC(=O)CCNC(=O)[C@@H]1OP(=O)(OCOC(=O)c2cc(C)nn2C)OCC1(C)C` (stereo partly drawn) [R1007, (((4R)-4-((3-((2-(acetylthio)ethyl)amino)-3-oxopropyl)carbamoyl)-5,5-dimethyl-2-oxido-1,3,2-dioxaphosphinan-2-yl)oxy)methyl 1,3-dimethyl-1H-pyrazole-5-carboxylate], the fold induction at 50 µM in data set [1] was determined as 109. The half-life at 5 μM in data set [2] (setting [4]) and in data set [2] (setting [5]) was less than 0.25 h throughout. In addition, the half-life at 3 μM in data set [3] (setting [6]) was 0.34 h; in data set [3] (setting [7]), less than 0.16 h.

Source of the values: US20190337971A1, “PANTETHEINE DERIVATIVES FOR THE TREATMENT OF NEUROLOGIC DISORDERS” (Retrophin, Inc., priority 2016, published 2019).
